According to ChEMBL document CHEMBL1201862, “PubChem BioAssay data set” (2004):
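Protocol summary: plate cells (96-well), add compound at 5 concentrations, incubate 48 h, interpolate endpoints linearly. Here, GI50 denotes the concentration required for 50% inhibition of growth.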 Calls of active or inactive are those of the source. Rule as the data show it: active = GI50 up to about 1.1 µM and inactive = higher.

Columns and labels:
Test in all cases: NCI-60 cell line screen, 48 h
[1] = system: 786-0
[2] = system: A498
[3] = system: A549
[4] = system: ACHN
[5] = system: BT-549
[6] = system: CAKI-1
[7] = system: CCRF-CEM
[8] = system: COLO 205
[9] = system: DU-145
[10] = system: EKVX
[11] = system: HCC 2998
[12] = system: HCT-116
[13] = system: HCT-15
[14] = system: HL-60
[15] = system: HOP-62
[16] = system: HOP-92
[17] = system: HT-29
[18] = system: Hs-578T
[19] = system: IGROV-1
[20] = system: K562
[21] = system: KM12
[22] = system: LOX IMVI
[23] = system: M14
[24] = system: MCF7
[25] = system: MDA-MB-231
[26] = system: MDA-MB-435
[27] = system: MDA-N
[28] = system: MOLT-4
[29] = system: NCI-H226
[30] = system: NCI-H23
[31] = system: NCI-H460
[32] = system: NCI-H522
[33] = system: NCI/ADR-RES
[34] = system: OVCAR-3
[35] = system: OVCAR-4
[36] = system: OVCAR-5
[37] = system: OVCAR-8
[38] = system: PC-3
[39] = system: RPMI-8226
[40] = system: RXF 393
[41] = system: SF-268
[42] = system: SF-295
[43] = system: SF-539
[44] = system: SK-MEL-28
[45] = system: SK-MEL-2
[46] = system: SK-MEL-5
[47] = system: SK-OV-3
[48] = system: SN12C
[49] = system: SNB-19
[50] = system: SNB-75
[51] = system: SR
[52] = system: SW-620
[53] = system: T47D
[54] = system: TK-10
[55] = system: U-251
[56] = system: UACC-257
[57] = system: UACC-62
[58] = system: UO-31
[59] = system: Malme-3M

SMILES: CCCC(=O)NC1=C(Cl)C(=O)c2ccccc2C1=O
- GI50 [1]: 4.53 µM (inactive)
- GI50 [2]: 13.3 µM (inactive)
- GI50 [3]: 4.39 µM (inactive)
- GI50 [4]: 1.73 µM (inactive)
- GI50 [5]: 5.43 µM (inactive)
- GI50 [6]: 3 µM (inactive)
- GI50 [7]: 1.32 µM (inactive)
- GI50 [8]: 1.89 µM (inactive)
- GI50 [9]: 8.32 µM (inactive)
- GI50 [10]: 3.72 µM (inactive)
- GI50 [11]: 4.22 µM (inactive)
- GI50 [12]: 1.73 µM (inactive)
- GI50 [13]: 1.68 µM
- GI50 [14]: 0.145 µM (active)
- GI50 [15]: 9.23 µM (inactive)
- GI50 [16]: 1.82 µM (inactive)
- GI50 [17]: 8.49 µM (inactive)
- GI50 [18]: 5.25 µM (inactive)
- GI50 [19]: 5.07 µM (inactive)
- GI50 [20]: 2.07 µM (inactive)
- GI50 [21]: 3.01 µM (inactive)
- GI50 [22]: 2.51 µM (inactive)
- GI50 [23]: 3.13 µM (inactive)
- GI50 [24]: 2.39 µM (inactive)
- GI50 [25]: 3.94 µM (inactive)
- GI50 [26]: 3.42 µM (inactive)
- GI50 [27]: 4.11 µM (inactive)
- GI50 [28]: 2.56 µM (inactive)
- GI50 [29]: 7.78 µM (inactive)
- GI50 [30]: 3.03 µM (inactive)
- GI50 [31]: 3.64 µM (inactive)
- GI50 [32]: 1.13 µM (inactive)
- GI50 [33]: 3.32 µM (inactive)
- GI50 [34]: 2.29 µM (inactive)
- GI50 [35]: 4.51 µM (inactive)
- GI50 [36]: 4.59 µM (inactive)
- GI50 [37]: 5.02 µM (inactive)
- GI50 [38]: 3.23 µM (inactive)
- GI50 [39]: 1.48 µM (inactive)
- GI50 [40]: 1.15 µM (inactive)
- GI50 [41]: 6.92 µM (inactive)
- GI50 [42]: 4.99 µM (inactive)
- GI50 [43]: 2.45 µM (inactive)
- GI50 [44]: 4.33 µM (inactive)
- GI50 [45]: 2.39 µM (inactive)
- GI50 [46]: 2.67 µM (inactive)
- GI50 [47]: 8.67 µM (inactive)
- GI50 [48]: 10.8 µM (inactive)
- GI50 [49]: 6.89 µM (inactive)
- GI50 [50]: 5.09 µM (inactive)
- GI50 [51]: 1.83 µM (inactive)
- GI50 [52]: 1.79 µM (inactive)
- GI50 [53]: 2.25 µM (inactive)
- GI50 [54]: 4.89 µM (inactive)
- GI50 [55]: 3.78 µM (inactive)
- GI50 [56]: 4.29 µM (inactive)
- GI50 [57]: 2.32 µM (inactive)
- GI50 [58]: 2.96 µM (inactive)

SMILES: COc1ccc(-c2cc3cc(Cl)cc(Cl)c3oc2=O)cc1OC
- GI50 [1]: 35.3 µM (inactive)
- GI50 [2]: 79.1 µM (inactive)
- GI50 [3]: 92.3 µM (inactive)
- GI50 [4]: 37.7 µM (inactive)
- GI50 [5]: 57.3 µM (inactive)
- GI50 [6]: > 100 µM (inactive)
- GI50 [7]: > 100 µM (inactive)
- GI50 [8]: > 100 µM (inactive)
- GI50 [9]: > 100 µM (inactive)
- GI50 [10]: 92.9 µM (inactive)
- GI50 [11]: 44.7 µM (inactive)
- GI50 [12]: 31.6 µM (inactive)
- GI50 [13]: 48.8 µM
- GI50 [14]: > 100 µM (inactive)
- GI50 [15]: 40 µM (inactive)
- GI50 [16]: 46.6 µM (inactive)
- GI50 [17]: 55.2 µM (inactive)
- GI50 [18]: 31.4 µM (inactive)
- GI50 [19]: 51.8 µM (inactive)
- GI50 [20]: 33.3 µM (inactive)
- GI50 [21]: 31.6 µM (inactive)
- GI50 [22]: > 100 µM (inactive)
- GI50 [23]: 60.3 µM (inactive)
- GI50 [24]: 59.3 µM (inactive)
- GI50 [25]: 62.7 µM (inactive)
- GI50 [26]: 65 µM (inactive)
- GI50 [27]: 94 µM (inactive)
- GI50 [28]: > 100 µM (inactive)
- GI50 [59]: 59.8 µM (inactive)
- GI50 [29]: 43.9 µM (inactive)
- GI50 [30]: 36.5 µM (inactive)
- GI50 [31]: 36.7 µM (inactive)
- GI50 [32]: 36.1 µM (inactive)
- GI50 [33]: 56.9 µM (inactive)
- GI50 [34]: 29.4 µM (inactive)
- GI50 [35]: 32.8 µM (inactive)
- GI50 [36]: > 100 µM (inactive)
- GI50 [37]: 65.8 µM (inactive)
- GI50 [38]: 46.9 µM (inactive)
- GI50 [39]: 63.5 µM (inactive)
- GI50 [40]: 19.4 µM (inactive)
- GI50 [41]: 43.6 µM (inactive)
- GI50 [42]: 48.5 µM (inactive)
- GI50 [43]: 81.7 µM (inactive)
- GI50 [44]: 94.2 µM (inactive)
- GI50 [45]: > 100 µM (inactive)
- GI50 [46]: 28.8 µM (inactive)
- GI50 [47]: 74.8 µM (inactive)
- GI50 [48]: 39.8 µM (inactive)
- GI50 [49]: 28.2 µM (inactive)
- GI50 [51]: 82 µM (inactive)
- GI50 [52]: > 100 µM (inactive)
- GI50 [53]: 46.8 µM (inactive)
- GI50 [54]: 44.9 µM (inactive)
- GI50 [55]: 37.2 µM (inactive)
- GI50 [56]: 51.1 µM (inactive)
- GI50 [57]: 63.2 µM (inactive)
- GI50 [58]: 58.7 µM (inactive)
